According to ChEMBL document CHEMBL5725323, “Heterocyclic ITK inhibitors for treating inflammation and cancer” (2017):

Biological target: T1, Tyrosine-protein kinase ITK/TSK (Homo sapiens, UniProt Q08881)
T1 sequence (Q08881 whole entry): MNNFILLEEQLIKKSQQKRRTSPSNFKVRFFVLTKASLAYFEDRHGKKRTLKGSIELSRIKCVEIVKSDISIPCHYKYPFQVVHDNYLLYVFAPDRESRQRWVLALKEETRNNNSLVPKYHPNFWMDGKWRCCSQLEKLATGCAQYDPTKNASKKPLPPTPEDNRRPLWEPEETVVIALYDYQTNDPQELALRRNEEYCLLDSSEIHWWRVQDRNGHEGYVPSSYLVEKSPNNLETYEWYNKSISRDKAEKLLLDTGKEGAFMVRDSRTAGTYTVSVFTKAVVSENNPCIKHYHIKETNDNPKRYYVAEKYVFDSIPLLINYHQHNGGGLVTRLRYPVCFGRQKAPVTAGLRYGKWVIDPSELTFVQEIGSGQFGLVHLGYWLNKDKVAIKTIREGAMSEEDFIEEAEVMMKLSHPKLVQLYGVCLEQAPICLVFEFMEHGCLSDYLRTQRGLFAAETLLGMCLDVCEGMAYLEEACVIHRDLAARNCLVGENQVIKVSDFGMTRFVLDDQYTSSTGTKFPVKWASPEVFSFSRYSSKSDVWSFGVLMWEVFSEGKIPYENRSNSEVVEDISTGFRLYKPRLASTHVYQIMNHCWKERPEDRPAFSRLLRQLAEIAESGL
Test: ITK Target Modulation PLC-gamma Assay: Compounds were serially diluted into DMSO, and then into media to concentrations 10× that of the final assay concentration. Compounds were then added to the cells with the final assay DMSO concentration being 0.1%. Cells were incubated for 1 hour at 37° C. Following compound incubation, αCD3 Dynabeads were added at 1 bead/cell to each assay well and incubated at 37° C. for 7 minutes. Unstimulated control wells received media only. The plate was then placed on a 96-well magnetic plate for an additional 60 seconds (total assay stimulation time equals 8 minutes). The plate was then dumped and gently patted dry on a paper towel. 50 ul of complete Meso Scale Discovery (MSD) Lysis buffer was then added to each well. Samples were assayed for phospho-PLCγ1 using Meso Scale Discovery technology.

| Structure (SMILES) | IC50 |
| --- | --- |
| C=CC(=O)Nc1cccc(-c2cnc3[nH]cc(-c4ccnc5ccccc45)c3c2)c1 | 1 to 5 µM |
| C=CC(=O)Nc1cccc(-c2cnc3[nH]cc(-c4cccc5[nH]ccc45)c3c2)c1 | 1 to 5 µM |
| C=CC(=O)Nc1cccc(-c2cnc3[nH]cc(-c4cccc(OC)c4)c3c2)c1 | 1 to 5 µM |
| C=CC(=O)Nc1cccc(-c2cnc3[nH]cc(-c4ccc(=O)n(CC5CC5)c4)c3c2)c1 | < 1 µM |
| C=CC(=O)Nc1cccc(-c2cnc3[nH]cc(-c4cc(NC)ncn4)c3c2)c1 | 1 to 5 µM |
| C=CC(=O)Nc1cccc(-c2cnc3[nH]cc(-c4ccccc4C)c3c2)c1 | 1 to 5 µM |
| C=CC(=O)Nc1cccc(-c2cnc3[nH]cc(-c4cccc(C#N)c4)c3c2)c1 | 1 to 5 µM |
| C=CC(=O)Nc1cccc(-c2cnc3[nH]cc(-c4cccc5ncccc45)c3c2)c1 | 1 to 5 µM |
| C=CC(=O)Nc1cccc(-c2cnc3[nH]cc(-c4ccncn4)c3c2)c1 | < 1 µM |
| C=CC(=O)Nc1cccc(-c2cnc3[nH]cc(-c4cn(CC5CC5)c(=O)c5[nH]ccc45)c3c2)c1 | 1 to 5 µM |
| C=CC(=O)Nc1cccc(-c2cnc3[nH]cc(-c4cccc5occc45)c3c2)c1 | > 5 µM |
| C=CC(=O)Nc1cccc(-c2cnc3[nH]cc(-c4ccnc(NC)n4)c3c2)c1 | < 1 µM |
| C=CC(=O)Nc1cc(-c2cnc3[nH]cc(-c4ccnc(OC)c4)c3c2)cc(-c2cnn(C)c2)c1 | < 1 µM |
| Cc1cc(-c2c[nH]c3ncc(-c4cccc(/C=C(\C#N)C(N)=O)c4)cc23)ccn1 | 1 to 5 µM |

Other lines, results leading:

| IC50 | Structure (SMILES) |
| --- | --- |
| 1 to 5 µM | C=CC(=O)Nc1cc(-c2cnc3[nH]cc(-c4ccc(OC)nc4)c3c2)cc(C(F)(F)F)c1 |
| < 1 µM | C=CC(=O)Nc1cccc(-c2cnc3[nH]cc(-c4ccnc(F)c4)c3c2)c1 |
| 1 to 5 µM | C=CC(=O)Nc1cccc(-c2cnc3[nH]cc(-c4cc(C)nc(OC)c4)c3c2)c1 |
| < 1 µM | C=CC(=O)Nc1cc(-c2cnc3[nH]cc(-c4ccncc4)c3c2)cc(C(F)(F)F)c1 |
| 1 to 5 µM | C=CC(=O)Nc1cc(-c2cnc3[nH]cc(-c4ccnc(OC)c4)c3c2)cc(C(O)(CC)CC)c1 |
| < 1 µM | C=CC(=O)Nc1cccc(-c2cnc3[nH]cc(-c4ccnc(NC)c4)c3c2)c1 |
| < 1 µM | C=CC(=O)Nc1cc(OC)cc(-c2cnc3[nH]cc(-c4ccncc4)c3c2)c1 |

Biological target: T1, Tyrosine-protein kinase ITK/TSK
Test: ITK Inhibitor Binding Kinetics: This assay is based on the binding of a proprietary, Alexa Fluor 647-labeled, ATP-competitive kinase inhibitor (kinase tracer-236) to the ITK expression construct in the presence of a Europium-conjugated antibody, resulting in a FRET (fluorescence resonance energy transfer) signal. Displacement of the kinase tracer by compound results in a lower emission ratio upon excitation of the Europium chelate. Candidate compounds are designed as potential irreversible inhibitors of ITK, capable of ligating to an active site cysteine residue resulting in time dependent covalent binding. The time dependent nature of irreversible inhibition is investigated by performing the binding assay with and without a pre-incubation of compound and ITK.

| Structure (SMILES) | IC50 |
| --- | --- |
| COC/C=C/C(=O)Nc1cccc(-c2cnc3[nH]cc(-c4ccnc(OC)c4)c3c2)c1 | < 1 µM |
| C=CC(=O)NC1CN(c2cnc3[nH]cc(-c4ccnc(C#N)c4)c3c2)C1 | < 1 µM |
| N#C/C(=C\c1cccc(-c2cnc3[nH]cc(-c4ccncn4)c3c2)c1)C(N)=O | < 1 µM |
| C=CC(=O)Nc1cccc(-c2cnc3[nH]cc(-c4cncc5[nH]ccc45)c3c2)c1 | < 1 µM |
| COc1cc(/C=C(\C#N)C(N)=O)cc(-c2cnc3[nH]cc(-c4ccnc(OC)c4)c3c2)c1 | < 1 µM |
| C=CC(=O)Nc1cncc(-c2cnc3[nH]cc(-c4cn(C)c(=O)c5[nH]ccc45)c3c2)c1 | < 1 µM |
| C=CC(=O)Nc1cccc(-c2cnc3[nH]cc(-c4ccc(=O)n(CC(C)(C)O)c4)c3c2)c1 | < 1 µM |
| N#C/C(=C\c1cccc(-c2cnc3[nH]cc(-c4ccc(F)nc4)c3c2)c1)C(N)=O | < 1 µM |
| C=CC(=O)Nc1cccc(-c2cnc3[nH]cc(-c4cccc5cnccc45)c3c2)c1 | < 1 µM |
| C=CC(=O)Nc1cccc(-c2cnc3[nH]cc(-c4cc(C)cc(OC)n4)c3c2)c1 | < 1 µM |
| C=C(C)C(=O)Nc1cc(-c2cnc3[nH]cc(-c4ccnc(OC)c4)c3c2)cc(-c2cnn(C)c2)n1 | < 1 µM |
| C=CC(=O)Nc1cccc(-c2cnc3[nH]cc(-c4ccnc5[nH]ccc45)c3c2)c1 | < 1 µM |
| C=CC(=O)Nc1cccc(-c2cnc3[nH]cc(-c4cccc5ccccc45)c3c2)c1 | < 1 µM |

The next lines start with the values.

| IC50 | Structure (SMILES) |
| --- | --- |
| < 1 µM | C=CC(=O)Nc1cccc(-c2cnc3[nH]cc(-c4cncc(Cl)c4)c3c2)c1 |
| < 1 µM | C=CC(=O)Nc1cccc(-c2cnc3[nH]cc(-c4cccnc4)c3c2)c1 |
| < 1 µM | C=CC(=O)Nc1cccc(-c2cnc3[nH]cc(-c4ccnc(C)c4)c3c2)c1 |
| < 1 µM | C=CC(=O)Nc1cccc(-c2cnc3[nH]cc(-c4ccc(OCC5CC5)nc4)c3c2)c1 |
| < 1 µM | C=CC(=O)Nc1cccc(-c2cnc3[nH]cc(-c4cc(C)ncn4)c3c2)c1 |
| < 1 µM | C=CC(=O)Nc1cc(-c2cnc3[nH]cc(-c4ccnc(F)c4)c3c2)cc(C(F)(F)F)c1 |
| < 1 µM | C=CC(=O)Nc1cc(C#N)cc(-c2cnc3[nH]cc(-c4ccncc4)c3c2)c1 |
| < 1 µM | C=CC(=O)Nc1cccc(-c2cnc3[nH]cc(-c4ccc(OC)nc4)c3c2)c1 |
| > 1 µM | C=CC(=O)Nc1cccc(-c2cnc3[nH]cc(-c4cc(OC)nc(C(F)(F)F)c4)c3c2)c1 |
| < 1 µM | C=CC(=O)Nc1cc(-c2cnc3[nH]cc(-c4ccc(F)nc4)c3c2)cc(C(F)(F)F)c1 |
| < 1 µM | C=CC(=O)Nc1cccc(-c2cnc3[nH]cc(-c4ccc(=O)n(C)c4)c3c2)c1 |
| < 1 µM | C=CC(=O)Nc1cc(-c2cnc3[nH]cc(-c4cccnc4)c3c2)cc(C(F)(F)F)c1 |
| < 1 µM | C=CC(=O)Nc1cccc(-c2cnc3[nH]cc(-c4cc(OC)ncc4C)c3c2)c1 |
| < 1 µM | C=CC(=O)Nc1cccc(-c2cnc3[nH]cc(-c4ccc(F)nc4)c3c2)c1 |
| < 1 µM | C=CC(=O)Nc1cccc(-c2cnc3[nH]cc(-c4ccc(NC)nc4)c3c2)c1 |
